Data published in publication PMC2346451 (PLoS ONE, 2008).

What was measured:
[1] = system: dorsal root ganglion neurons; experiment: Whole-cell patch clamp of acutely isolated dorsal root ganglion neurons; format: cell-based, rat
Source text: Dorsal root ganglion neurons from all spinal levels were removed from postnatal day 12 to 20 Sprague Dawley rats and the nerve roots trimmed. Calcium- and magnesium-free (CMF) Hank's solution contained (in mM): 136.9 sodium chloride, 5.4 potassium chloride, 0.34 dibasic sodium orthophosphate, 0.44 monopotassium phosphate, 5.6 glucose, 5 4-(2-hydroxyethyl)-1-piperazineethanesulfonic acid, 0.005% phenol red, pH 7.4. CMF Hank's was used throughout the isolation and enzymatic treatments. The isolated ganglia were treated for 20 minutes at 37°C with 20 U/ml of papain (Worthington Biochemical, Lakewood, NJ) and 5 mM cysteine. The ganglia were then transferred to CMF Hank's with 3 mg/ml collagenase (type I; Worthington) and 4 mg/ml dispase (neutral type II; Roche Applied Science, Indianapolis, IN) for 20 minutes at 37°C. Individual neurons were dispersed by trituration through a fire-polished glass Pasteur pipette in 3 ml of media containing DMEM, 5% horse serum, 10% fetal bovine serum, 1% penicillin/streptomycin, and 100 ng/ml Nerve Growth Factor (7S subunit; Invitrogen). The neurons were preplated in tissue culture-treated Petri dishes for 1 hour when used for electrophysiology (3 hours for calcium imaging), and then plated on poly-L-lysine (1 mg/ml)-coated glass coverslips. Dorsal root ganglion neurons were allowed to settle for 1–2 hours at 37°C before patching or imaging over the next 6 hours.
(§1) Electrophysiological experiments were performed using the whole-cell patch-clamp technique at room temperature. Modified Ringer's solution with low chloride and nominal calcium contained (in mM): 130 sodium hydroxide, 5 potassium chloride, 1 magnesium chloride, 10 sodium 4-(2-hydroxyethyl)-1-piperazineethanesulfonic acid, 10 2-(N-morpholino)ethanesulfonic acid, and 20 glucose (pH 7.4; 310 milli-osmolar). […] 2 mM calcium chloride was included in the external solution where noted. To activate TRPV1, the modified Ringer's solution was made at pH 5 (low pH solution) and the chloride concentration was kept to a minimum to prevent contamination of the TRPV1 currents with acid-activated chloride currents. For recordings from heterologously expressing cells, the internal pipette solution contained (in mM): 125 cesium-Methanesulfonate, 10 cesium (1.2-bis(o-aminophenoxy)ethane-N,N,N',N'-tetraacetic acid, 8 sodium chloride, 4 magnesium adenosine triphosphate, and 10 HEPES (pH 7.2; 290 mOSM; nominal free calcium concentrations). For TRPA1 and dorsal root ganglion recordings, the internal pipette solution contained (in mM): 110 cesium-Methanesulfonate, 0.5 cesium4BAPTA, 8 sodium chloride, 0.2 calcium chloride, 4 magnesium-ATP, 4 sodium-GTP, and 10 4-(2-hydroxyethyl)-1-piperazineethanesulfonic acid (pH 7.2; 290 mOSM; 100 nM free calcium internal). MaxChelator was used to calculate the free calcium concentration (http://www.stanford.edu/cpatton/maxc.html).
(§2) Recordings were obtained using an Axopatch 200B amplifier, Digidata 1322A analog-to-digital converter, and pClamp 8.01 software (Molecular Devices, Union City, CA). Data were low-pass filtered at 2 kHz and digitized at 5 kHz. Borosilicate glass pipettes (World Precision Instruments, Sarasota, FL) were typically 3 MΩ pipette resistance after fire polishing. Cell capacitance was measured for each cell, and access resistance compensated to ∼80%. Recordings were begun ∼5 minutes after initial rupture to ensure initial steady state conditions. Current-voltage (I-V) relations were obtained using a ramp protocol. Voltage ramps (400 ms) from −100 to +40 or +100 mV were applied every 1–2 seconds and the holding potential was either −70 mV or 0 mV (see Figure Legends). A 40 ms step was added at the beginning and end of the ramp (i.e. at −100 mV, +40 mV or +100 mV). Liquid junction potentials were not corrected.

rat TRPA1 (rTRPA1) = rat TRPA1 (rTRPA1) (Rattus norvegicus, UniProt Q6RI86); experiment: Whole-cell patch clamp of rat TRPA1 expressed in HEK-293T cells; format: cell-based
Experimental: (§3) Transformed human embryonic kidney-293 (HEK-293T) cells were grown in Dulbecco's modified Eagle's medium (DMEM)+F-12 supplemented with 10% fetal calf serum, and 1% penicillin/streptomycin in 5% CO2 at 37°C. Cells grown to 90% confluence in 35 mm Petri dishes were transiently transfected with plasmid DNA encoding a TRP channel construct (1 µg). Rat TRPV1 (rTRPV1) was cloned into an enhanced green fluorescent protein-containing vector (pTracer-CMV2; Invitrogen, Carlsbad, CA). Chicken TRPV1 (cTRPV1), the chicken rat TRPV1 chimera (crcTRPV1), rat TRPV2 (rTRPV2), mouse TRPV3 (mTRPV3), mouse TRPV4 (mTRPV4), rat TRPM8 (rTRPM8), and rat TRPA1 (rTRPA1), were cloned into pcDNA3 and co-transfected with enhanced green fluorescent protein (0.1 µg) to follow expression. The cTRPV1 and crcTRPV1 clones were kindly provided by Dr. David Julius. Recordings were carried out 24–36 hours after transfection. Cells were split via trypsin EDTA, plated on glass coverslips at 5–10% confluence, and used 2–3 hours later.
as §1, §2
(§4) The dose response curves were fit with the Hill equation, where [drawing 8] and [A] is the concentration of agonist or blocker, N is the Hill coefficient, and KD is the [A] for Imeasured/Imax = 0.5. The term apparent dissociation constant is used in place of the half concentration of excitation and inhibition. […] Averaged data are presented as mean±standard error (S.E.) throughout. Statistical analysis included paired and unpaired Student's t-test comparisons of the data; p values are reported in the text.

mouse TRPV3 (mTRPV3) = biological target: T1, mouse TRPV3 (mTRPV3) (Mus musculus, UniProt Q8K424); experiment: Whole-cell patch clamp of mouse TRPV3 expressed in HEK-293T cells; format: cell-based
T1 sequence (Q8K424 1-791): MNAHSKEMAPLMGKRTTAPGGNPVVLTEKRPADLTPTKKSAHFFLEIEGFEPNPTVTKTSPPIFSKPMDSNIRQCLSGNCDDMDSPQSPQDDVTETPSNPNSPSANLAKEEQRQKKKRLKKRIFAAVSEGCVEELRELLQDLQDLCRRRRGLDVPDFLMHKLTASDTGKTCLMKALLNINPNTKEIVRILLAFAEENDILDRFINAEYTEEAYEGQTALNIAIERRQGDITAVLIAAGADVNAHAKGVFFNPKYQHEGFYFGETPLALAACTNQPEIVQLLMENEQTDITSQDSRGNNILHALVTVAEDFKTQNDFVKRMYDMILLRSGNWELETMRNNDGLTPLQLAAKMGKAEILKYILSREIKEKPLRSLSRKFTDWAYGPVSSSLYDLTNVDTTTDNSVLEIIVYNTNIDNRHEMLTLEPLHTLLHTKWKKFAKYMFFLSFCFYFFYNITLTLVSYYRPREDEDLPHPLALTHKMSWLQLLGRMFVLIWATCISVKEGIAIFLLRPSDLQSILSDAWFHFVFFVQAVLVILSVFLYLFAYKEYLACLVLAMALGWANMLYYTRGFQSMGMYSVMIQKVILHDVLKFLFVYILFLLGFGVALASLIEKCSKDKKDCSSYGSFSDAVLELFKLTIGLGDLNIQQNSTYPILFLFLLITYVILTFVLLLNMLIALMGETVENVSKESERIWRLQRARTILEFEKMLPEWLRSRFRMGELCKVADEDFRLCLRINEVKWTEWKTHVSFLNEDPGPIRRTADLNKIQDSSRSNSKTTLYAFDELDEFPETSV
Experimental: as §3, §1, §2, §4

rat TRPM8 (rTRPM8) = rat TRPM8 (rTRPM8) (Rattus norvegicus, UniProt Q8R455); experiment: Whole-cell patch clamp of rat TRPM8 expressed in HEK-293T cells; format: cell-based
Experimental: as §3, §1, §2, §4

rat TRPV1 (rTRPV1) = rat TRPV1 (rTRPV1) (Rattus norvegicus, UniProt O35433); experiment: Whole-cell patch clamp of rat TRPV1 expressed in HEK-293T cells; format: cell-based; details: for Activation of TRPV1 current: analyzed at −40 mV and +40 mV; for Decrease of pH 5-evoked TRPV1 current: 300 µM, −40 mV
Experimental: as §3, §1, §2, §4

[2] = after citral inhibition of TRPV1

Sequence of rat TRPM8 (rTRPM8) (Q8R455 whole entry): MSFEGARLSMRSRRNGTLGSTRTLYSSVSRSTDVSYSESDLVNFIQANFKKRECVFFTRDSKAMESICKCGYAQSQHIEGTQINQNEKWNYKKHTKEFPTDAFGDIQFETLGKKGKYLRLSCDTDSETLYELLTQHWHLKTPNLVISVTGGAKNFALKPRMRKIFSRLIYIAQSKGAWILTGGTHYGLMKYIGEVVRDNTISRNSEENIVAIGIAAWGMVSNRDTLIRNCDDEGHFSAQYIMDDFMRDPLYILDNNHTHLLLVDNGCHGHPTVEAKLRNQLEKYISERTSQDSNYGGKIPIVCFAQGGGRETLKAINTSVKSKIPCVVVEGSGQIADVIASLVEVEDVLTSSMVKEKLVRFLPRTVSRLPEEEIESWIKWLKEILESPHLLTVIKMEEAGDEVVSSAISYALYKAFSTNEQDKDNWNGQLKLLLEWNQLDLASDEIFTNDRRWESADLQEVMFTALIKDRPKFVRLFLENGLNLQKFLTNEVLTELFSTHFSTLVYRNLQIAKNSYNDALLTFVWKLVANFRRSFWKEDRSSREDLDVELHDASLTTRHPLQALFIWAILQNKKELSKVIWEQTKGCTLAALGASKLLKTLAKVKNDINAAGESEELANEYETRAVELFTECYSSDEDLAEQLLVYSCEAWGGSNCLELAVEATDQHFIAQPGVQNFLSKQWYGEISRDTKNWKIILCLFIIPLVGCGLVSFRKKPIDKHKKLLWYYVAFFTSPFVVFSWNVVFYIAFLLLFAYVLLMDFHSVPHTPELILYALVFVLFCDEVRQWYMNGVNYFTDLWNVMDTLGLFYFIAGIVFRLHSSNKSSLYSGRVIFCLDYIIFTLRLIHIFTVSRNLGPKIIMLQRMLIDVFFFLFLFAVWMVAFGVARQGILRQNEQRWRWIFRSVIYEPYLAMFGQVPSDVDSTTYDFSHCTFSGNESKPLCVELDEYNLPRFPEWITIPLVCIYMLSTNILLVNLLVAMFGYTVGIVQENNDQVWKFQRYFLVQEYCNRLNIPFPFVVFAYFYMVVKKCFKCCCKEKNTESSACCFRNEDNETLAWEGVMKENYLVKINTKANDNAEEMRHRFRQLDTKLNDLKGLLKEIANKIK
Sequence of rat TRPV1 (rTRPV1) (O35433 whole entry): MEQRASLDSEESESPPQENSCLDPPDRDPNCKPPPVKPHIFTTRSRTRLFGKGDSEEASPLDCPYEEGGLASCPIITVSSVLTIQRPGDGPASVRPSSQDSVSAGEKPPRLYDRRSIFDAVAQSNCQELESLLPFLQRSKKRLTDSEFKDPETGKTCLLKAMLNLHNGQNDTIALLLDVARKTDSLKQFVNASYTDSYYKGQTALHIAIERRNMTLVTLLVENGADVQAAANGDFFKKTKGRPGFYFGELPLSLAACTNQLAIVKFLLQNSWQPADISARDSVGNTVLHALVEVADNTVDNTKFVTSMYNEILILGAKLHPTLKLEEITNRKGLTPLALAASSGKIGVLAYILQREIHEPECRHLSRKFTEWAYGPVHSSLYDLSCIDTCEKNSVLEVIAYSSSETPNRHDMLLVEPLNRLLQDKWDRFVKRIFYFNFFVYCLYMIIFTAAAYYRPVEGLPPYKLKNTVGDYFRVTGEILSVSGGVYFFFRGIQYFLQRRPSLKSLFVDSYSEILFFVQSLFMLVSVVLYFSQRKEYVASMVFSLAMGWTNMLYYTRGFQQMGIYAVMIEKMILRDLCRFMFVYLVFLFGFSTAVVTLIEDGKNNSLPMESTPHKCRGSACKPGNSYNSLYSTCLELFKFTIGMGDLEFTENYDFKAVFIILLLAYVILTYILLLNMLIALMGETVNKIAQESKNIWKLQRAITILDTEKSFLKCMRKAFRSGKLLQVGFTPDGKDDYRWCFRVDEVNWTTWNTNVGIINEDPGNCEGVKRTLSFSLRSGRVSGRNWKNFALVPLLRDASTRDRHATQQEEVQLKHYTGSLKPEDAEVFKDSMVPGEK
Sequence of rat TRPA1 (rTRPA1) (Q6RI86 whole entry): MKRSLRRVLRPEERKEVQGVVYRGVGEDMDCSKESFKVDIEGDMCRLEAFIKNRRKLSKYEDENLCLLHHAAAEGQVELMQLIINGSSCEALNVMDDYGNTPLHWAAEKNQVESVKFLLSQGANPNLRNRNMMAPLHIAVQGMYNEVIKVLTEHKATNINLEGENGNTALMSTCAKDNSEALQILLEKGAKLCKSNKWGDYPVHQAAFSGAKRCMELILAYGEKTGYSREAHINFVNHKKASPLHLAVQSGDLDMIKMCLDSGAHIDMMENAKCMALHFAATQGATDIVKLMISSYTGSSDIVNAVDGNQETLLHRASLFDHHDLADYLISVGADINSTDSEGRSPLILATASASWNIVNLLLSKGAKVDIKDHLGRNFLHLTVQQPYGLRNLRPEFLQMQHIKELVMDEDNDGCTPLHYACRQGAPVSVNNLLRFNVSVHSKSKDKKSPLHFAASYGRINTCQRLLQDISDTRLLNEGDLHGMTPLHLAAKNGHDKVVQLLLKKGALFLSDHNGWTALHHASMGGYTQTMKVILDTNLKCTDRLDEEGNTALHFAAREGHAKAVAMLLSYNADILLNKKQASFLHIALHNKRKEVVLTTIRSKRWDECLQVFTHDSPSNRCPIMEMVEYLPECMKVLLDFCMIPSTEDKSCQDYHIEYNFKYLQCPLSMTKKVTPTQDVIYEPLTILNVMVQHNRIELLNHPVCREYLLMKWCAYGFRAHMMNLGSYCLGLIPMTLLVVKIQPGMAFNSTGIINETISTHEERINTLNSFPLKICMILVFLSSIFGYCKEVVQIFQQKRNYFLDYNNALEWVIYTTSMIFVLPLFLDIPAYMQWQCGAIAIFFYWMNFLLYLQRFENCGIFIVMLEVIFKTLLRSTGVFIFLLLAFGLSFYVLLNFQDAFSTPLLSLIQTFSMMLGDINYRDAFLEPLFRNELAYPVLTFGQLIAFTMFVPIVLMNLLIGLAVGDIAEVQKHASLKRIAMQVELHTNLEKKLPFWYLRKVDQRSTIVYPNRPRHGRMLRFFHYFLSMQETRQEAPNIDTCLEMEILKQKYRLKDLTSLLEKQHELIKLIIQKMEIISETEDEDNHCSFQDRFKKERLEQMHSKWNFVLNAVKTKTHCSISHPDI

Decrease of pH 5-evoked TRPV1 current (rat TRPV1 (rTRPV1)) [%]	Structure (SMILES)	Activation of TRPA1 current (rat TRPA1 (rTRPA1))	Activation of TRPV3 current (mouse TRPV3 (mTRPV3))	Activation of TRPM8 current (rat TRPM8 (rTRPM8))	Activation of TRPV1 current (rat TRPV1 (rTRPV1))	also measured
	NCCOB(c1ccccc1)c1ccccc1 [2-aminoethyldiphenyl borate, reference compound]					Potentiation of current by repeated application, representative neuron ([1]; +100 mV): 2.3 fold; Cells with evoked currents among cells in which TRPV1 was inhibited [1, 2]: 27 of 30; Increase of current in cells in which TRPV1 was inhibited [1, 2]: 3±0.4 fold; Potentiation of current by repetitive application ([1]; second responsive population (six of twelve neurons)): 1.7±0.3 fold
	CC12CCC(CC1=O)C2(C)C (stereo not drawn) [camphor, reference compound]					Increase in outward current ([1]; second 2-aminoethyldiphenyl borate responsive population): 1.3 fold
	CC(C)=CCC/C(C)=C/C=O [geranial]	weakly activated	weakly activated	weakly activated	weakly activated	
45	CC(C)=CCC/C(C)=C/CO [geraniol]	weakly activated	weakly activated	weakly activated	weakly activated	Block of inward TRPA1 current (rat TRPA1 (rTRPA1); 1 mM, −100 mV, n = 9): 70%
	CC(C)=CCC/C(C)=C\C=O [neral]	weakly activated	weakly activated	weakly activated	weakly activated	
50	CC(C)=CCC/C(C)=C\CO [nerol]	weakly activated	weakly activated	weakly activated	weakly activated	Increase of TRPA1 current on second application (rat TRPA1 (rTRPA1); 1 mM, −100 mV, n = 4): 2 fold; TRPV1 current recovered after washout (rat TRPV1 (rTRPV1); 1 mM, 5 minutes after washout, in 3 of 4 cells): < 1%; inhibition at 1000 µM (rat TRPV1 (rTRPV1); HEK-293T, pH 5, 1 mM, sustained after 5 minutes washout, read-out: Inhibition of pH 5-evoked TRPV1 current): 100%
